Experiment [1] deals with Beta-2 adrenergic receptor (Homo sapiens, UniProt P07550).
Description: Displacement of [3H]CGP12177 from human beta2 adrenoceptor
For experiment [2], the target named is Beta-1 adrenergic receptor (Homo sapiens, UniProt P08588).
Description: Displacement of [3H]CGP12177 from human beta-1 adrenoceptor
A short description of experiment [3]: Agonist activity at beta 1 adrenoceptor in electrically-stimulated guinea pig left atrium at 1 uM. The class given is functional, Cavia porcellus, Cardiac atrium.

Structures are written as SMILES.

Chain of Beta-1 adrenergic receptor (P08588 whole entry): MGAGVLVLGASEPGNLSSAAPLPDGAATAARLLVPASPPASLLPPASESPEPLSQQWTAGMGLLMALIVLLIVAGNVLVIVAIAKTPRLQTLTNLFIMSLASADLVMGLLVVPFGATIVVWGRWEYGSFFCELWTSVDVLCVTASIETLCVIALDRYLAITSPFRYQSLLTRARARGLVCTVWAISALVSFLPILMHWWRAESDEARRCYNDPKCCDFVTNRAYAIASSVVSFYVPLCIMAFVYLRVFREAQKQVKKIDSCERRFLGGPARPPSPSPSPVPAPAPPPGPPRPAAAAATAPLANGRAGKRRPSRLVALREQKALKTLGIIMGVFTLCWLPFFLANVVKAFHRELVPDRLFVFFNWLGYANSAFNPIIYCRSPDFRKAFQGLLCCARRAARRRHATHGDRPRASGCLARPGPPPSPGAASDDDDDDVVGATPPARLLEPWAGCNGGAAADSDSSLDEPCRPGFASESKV
Chain of Beta-2 adrenergic receptor (P07550 whole entry): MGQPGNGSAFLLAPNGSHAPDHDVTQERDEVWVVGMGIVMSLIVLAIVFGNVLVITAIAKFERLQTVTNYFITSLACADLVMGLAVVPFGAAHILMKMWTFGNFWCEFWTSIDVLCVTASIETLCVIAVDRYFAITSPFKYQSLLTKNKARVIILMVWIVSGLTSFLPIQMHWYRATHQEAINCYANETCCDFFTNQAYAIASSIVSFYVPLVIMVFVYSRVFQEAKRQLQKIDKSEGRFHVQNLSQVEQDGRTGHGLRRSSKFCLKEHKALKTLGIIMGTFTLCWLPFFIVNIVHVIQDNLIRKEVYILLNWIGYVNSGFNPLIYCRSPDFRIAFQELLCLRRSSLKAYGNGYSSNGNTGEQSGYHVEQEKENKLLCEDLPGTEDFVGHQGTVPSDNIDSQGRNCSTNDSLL

In general, Ki refers to the equilibrium dissociation constant of an inhibitor or competing ligand from its target. Low readings indicate tighter binding, high ones weaker binding. Regarding `CCC(CC)CNC[C@H](O)c1ccc(O)c2[nH]c(=O)sc12`, the Ki in experiment [1] was 24.7 nM; in experiment [2] it was 169 nM.
For `C[C@@H](NC[C@H](O)c1ccc(O)c2[nH]c(=O)sc12)C1CCCCC1`, the Activity in experiment [3] was determined as 69%. Also, the inhibition constant (Ki) was 1 nM in experiment [1] and 1.5 nM in experiment [2].
As for `C[C@H](NC[C@H](O)c1ccc(O)c2[nH]c(=O)sc12)C1CCCCC1`, the Ki in experiment [1] stood at 25.1 nM; in experiment [2], 39.3 nM.
For `CC(C)(C)CC(C)(C)NC[C@H](O)c1ccc(O)c2[nH]c(=O)sc12` the same measures were 1.9 nM and 9.2 nM.
For `O=c1[nH]c2c(O)ccc([C@@H](O)CNCC34CC5CC(CC(C5)C3)C4)c2s1` the same measures were 26.5 nM and 35.4 nM.
As for `O=c1[nH]c2c(O)ccc([C@@H](O)CNCCc3ccccc3)c2s1`, the Ki in experiment [1] was 1.8 nM; in experiment [2], 3.8 nM.
In the case of `Cc1onc(-c2ccccc2)c1CNC[C@H](O)c1ccc(O)c2[nH]c(=O)sc12`, the Activity in experiment [3] is 19%. In addition, the figures for the inhibition constant (Ki) in experiment [1] and in experiment [2] were 19.8 nM and 902 nM, respectively.
`O=c1[nH]c2c(O)ccc([C@@H](O)CNCCCc3ccccc3)c2s1`: the Ki in experiment [1] worked out at 1.2 nM; in experiment [2] it was 2 nM.
For `CC(C)(Cc1ccccc1)NC[C@H](O)c1ccc(O)c2[nH]c(=O)sc12` the same measures were 0.4 nM and 1.8 nM.
The corresponding values for `O=c1[nH]c2c(O)ccc([C@@H](O)CN[C@@H]3CCCc4ccccc43)c2s1` are 9.4 nM and 112 nM.
For `O=c1[nH]c2c(O)ccc([C@@H](O)CN[C@H]3CCCc4ccccc43)c2s1` the same measures were 30.2 nM and 58.2 nM.
`O=c1[nH]c2c(O)ccc([C@@H](O)CNCCCCc3ccccc3)c2s1`: the Ki in experiment [1] came out at 1.8 nM; in experiment [2], 15 nM.
Consider `C[C@@H](NC[C@H](O)c1ccc(O)c2[nH]c(=O)sc12)c1ccc2ccccc2c1`, for which the Ki was determined as 2.7 nM in experiment [1] and 1.4 nM in experiment [2].
For `C[C@H](NC[C@H](O)c1ccc(O)c2[nH]c(=O)sc12)c1ccc2ccccc2c1` the same measures were 48.9 nM and 33.7 nM.
The corresponding values for `O=c1[nH]c2c(O)ccc([C@@H](O)CNC3CCCCCC3)c2s1` are 11.8 nM and 78.8 nM.
In experiment [3], `O=c1[nH]c2c(O)ccc([C@@H](O)CN[C@@H]3CCCC[C@H]3OCc3ccccc3)c2s1` came in with an Activity of 13%. The inhibition constant (Ki) was found to be 7.2 nM in experiment [1] and 40.4 nM in experiment [2].
In the case of `O=c1[nH]c2c(O)ccc([C@@H](O)CN[C@H]3CCCC[C@@H]3OCc3ccccc3)c2s1`, the values for the Ki in experiment [1] and in experiment [2] were 362 nM and 1060 nM, respectively.
In the case of `CC1(C)[C@@H]2CC[C@]1(C)[C@@H](NC[C@H](O)c1ccc(O)c3[nH]c(=O)sc13)C2`, the Ki in experiment [1] worked out at 40.4 nM; in experiment [2] it was 1510 nM.
As for `CC1(C)[C@@H]2CC[C@@]1(C)[C@@H](NC[C@H](O)c1ccc(O)c3[nH]c(=O)sc13)C2`, the Ki stood at 3.8 nM in experiment [1] and 450 nM in experiment [2].
For `O=c1[nH]c2c(O)ccc([C@@H](O)CNC3CCCCC3C3CCCCC3)c2s1` (some centres not stated) the same measures were 151 nM and 662 nM.
`O=c1[nH]c2c(O)ccc([C@@H](O)CNC3CCN(CCN4CCCCCC4)CC3)c2s1`: the Ki in experiment [1] turned out to be 6.3 nM; in experiment [2] it was 187 nM.
`O=c1[nH]c2c(O)ccc([C@@H](O)CNCCOc3ccccc3)c2s1`: the Ki in experiment [1] was found to be 4.4 nM; in experiment [2], 17.8 nM.
For `CN(CCCNC[C@H](O)c1ccc(O)c2[nH]c(=O)sc12)c1ccccc1` the same measures were 0.3 nM and 8.4 nM.
For `O=C(NC1CCCCC1)[C@H](Cc1ccccc1)NC[C@H](O)c1ccc(O)c2[nH]c(=O)sc12`, the inhibition constant Ki in experiment [1] and in experiment [2] was above 1000 nM throughout.
Take `O=c1[nH]c2c(O)ccc([C@@H](O)CNCCSc3ccc(Cl)cc3)c2s1`: the Ki was 3 nM in experiment [1] and 1.7 nM in experiment [2].
For the molecule `CCCCN(CCCC)CCNC[C@H](O)c1ccc(O)c2[nH]c(=O)sc12`, the results for the Ki in experiment [1] and in experiment [2] were 18.3 nM and 31.3 nM, respectively.
Consider `CNCC(O)c1ccc(O)c2nc(O)sc12` (configuration not stated), for which the Ki worked out at 5 nM in experiment [1] and 60.6 nM in experiment [2].

These data come from ChEMBL document CHEMBL1221245, “A physical properties based approach for the exploration of a 4-hydroxybenzothiazolone series of beta2-adrenoceptor agonists as inhaled long-acting bronchodilators” (Bioorg Med Chem Lett, 2010).
